Data as given in patent publication US8802082B2, “Rhodamine derivatives for photodynamic diagnosis and treatment” (Université de Montreal, priority 1999, dated 2014).

Tests used:
[1] = system: CEM T cell acute lymphoblastic leukemia cell line; assay: Phototoxicity of TH9402, limiting dilution assay of clonogenic cells, CEM admixed with irradiated PBMC; format: cell-based; conditions: 10 μM TH9402 40 min, 90 min dye-free, 5 joules/cm^2, LDA 12-14 days
Experimental: T cells represent the most important population of immune cells present in the peripheral blood. […] Phototoxicity was also evaluated in parallel against the chronic myelogenous leukemia cell line K562, that had been used in U.S. Pat. Nos. 5,556,992 and 5,773,460. The CEM T cell acute lymphoblastic leukemia cell line and K562 chronic myelogeneous leukemia cell line (Lozzio, B. B. and Lozzio, C. B. (1979) Cancer Res., 3(6): 363-370) were obtained from the American Type Culture Collection (ATCC, 12301 Parklawn Drive, Rockville, Md. 20852 USA) under the accession number CCL-119 and CCL-243. Cultures were maintained at 37° C. in a humidified incubator with an atmosphere of 95% air and 5% CO2. […] Before each experiment, cell viability was assessed by trypan blue exclusion. […]
To assess the photochemotherapeutic potential and the in vitro phototoxicity of 4,5-dibromorhodamine 123 hydrobromide (TH9402), the T cell line CEM and the leukemic line K562 admixed with normal irradiated PBMC were incubated with TH9402 and exposed to 5 joules/cm^2 of light (as described above). […] Growth at each serial dilution was assessed in an “all-or-nothing” (positive or negative) fashion under an inverted phase microscope. […]

[2] = system: PHA-activated PB mononuclear cells; assay: Phototoxicity against PHA-activated PB mononuclear cells (mixed lymphocyte reaction, 3H-thymidine; cell counts); format: cell-based, human
Experimental: Suspensions of cells were then incubated with 10 μM TH9402 for 40 minutes at 37° C. Cells were treated at 1×10^6 cells/mL in X-vivo-15 medium without phenol red (BioWhittaker, Walkersville, Md., USA) supplemented with 2,5% FBS. At the end of the incubation period, cells were spun down and the cell pellet resuspended in the X-vivo culture medium in the absence of dye, supplemented with 10% FBS. Cells were then placed in T-flasks (Corning, Cambridge, Mass., USA) for 90 minutes at 37° C. […]
Normal PBMC were activated by incubation at 37° C. for 48 to 72 hours in X-vivo-15 medium (Biowhittaker, Walkersville. Md. U.S.A.) supplemented with 20% AB serum (Sigma), 1% pen-strep (Gibco), 2% glutamin (Gibco) and 20 μg/ml of phytohemagglutinin-A (PHA-P)(Sigma). […] Following incubation, cells were washed and treated with the TH9402 photodynamic treatment as described above, and proliferative activity measured as described below.
The latter cells were serially diluted in order to obtain effector (treated cells) to target ratios ranging from 2:1 to 1:4 (4×10^4 treated effector cells/well) and incubated at 37° C. for 5 days. […] Radioactivity in the cell harvest was counted using a liquid scintillation counter (Beckman, Chicago, Ill., USA).
The phototoxicity of TH9402 against PHA-activated PB mononuclear cells was assessed after photodynamic treatment using 5 and 7.5 joules/cm^2 of light energy (FIG. 2). […]

resting lymphocytes = assay: Cellular content/efflux of TH9402 by flow cytometry, resting lymphocytes; format: cell-based, human
Experimental: TH9402 cellular content in resting and activated lymphocytes was evaluated by flow-cytometry, since the intensity of TH9402 (green) fluorescence correlates with the cellular content in TH9402. Briefly, 10^6 cells/ml, previously activated or not with PHA, were incubated in X-vivo-5 medium supplemented with 2.5% human AB serum and 10 μM TH9402 for 40 minutes. These cells were washed two times with X-vivo medium supplemented with 10% AB serum and cells analysed by flow cytometry 30, 50, 70, 90 and 110 min after the end of the TH9402 incorporation period. […] Since cellular concentration of TH9402 correlates with the extent of cell elimination, the high concentration of TH9402 maintained in activated lymphocytes explains their sensitivity to photodynamic therapy. In contrast, the rapid efflux of TH9402 from resting lymphocytes should explain preservation of their proliferative activity.
In order to identify the mechanism responsible for the differential retention of TH9402 between activated and resting lymphocytes, cyclosporin-A was used to block the multidrug transporter (P-gp 170). These cells were incubated with 10 μM TH9402 for 8 minutes, and washed with medium containing 1 μg/ml cyclosporin-A or medium alone. TH9402 retention was subsequently evaluated by flow-cytometry (green fluorescence) (FIG. 5). […] The functional impairment of such a pump in activated lymphocytes could explain the high levels of phototoxicity observed in these cells.

SMILES: Br.COC(=O)c1ccccc1-c1c2ccc(=N)c(Br)c-2oc2c(Br)c(N)ccc12 [TH9402, 4,5-dibromorhodamine 123 (2-(4,5-dibromo-6-amino-3-imino-3H-xanthen-9-yl)-benzoic acid methyl ester) hydrobromide]
- CEM cells escaping elimination by phototherapy in comparison to the media only sample [1]: less than 0.1%
- reactivity towards MHC incompatible cells (proliferation in mixed lymphocyte culture) ([2]; PHA-activated cells treated with TH9402, 5 and 7.5 J/cm^2): abrogated
- decrease of cell counts of the treated cells in comparison to the medium control ([2]; three days after the photodynamic treatment): > 90%
- cells demonstrating low TH9402 fluorescence (resting lymphocytes; 10 μM TH9402 40 min, 110 minutes after the end of the incorporation period): approximately 50%
- TH9402 retention with cyclosporin A versus medium alone, resting lymphocytes (resting lymphocytes; 10 μM TH9402, wash with 1 μg/ml cyclosporin-A, 110 minutes): higher retention
- intensity of TH9402 fluorescence, resting versus activated lymphocytes (resting lymphocytes; all time-points evaluated (30-110 min)): less for resting lymphocytes than for activated lymphocytes
